# Key:
# Type in all cases: biochemical
# ROCK1 [1] = molecular target: T1, ROCK1 (Homo sapiens, UniProt Q13464); assay: In vitro Rho kinase inhibitory activity assay, ADP-Glo, Method A (ATP 10 μM); details: read-out: Method A ROCK 1 (Ki)
# Description: (§1) In Vitro Inhibitory Activity Assay Description (Method A)
# (§2) The effectiveness of compounds of the present invention to inhibit Rho kinase activity can be determined in a 10 μL assay containing 40 mM Tris pH7.5, 20 mM MgCl2 0.1 mg/mL BSA, 50 μM DTT and 2.5 μM peptide substrate (Myelin Basic Protein) using an ADP-Glo kit (Promega). Compounds were dissolved in DMSO such that the final concentration of DMSO was 1% in the assay. All reactions/incubations are performed at 25° C. Compound (2 μL) and either Rho kinase 1 or 2 (4 μL) were mixed and incubated for 30 min. Reactions were initiated by addition of ATP (4 μL) such that the final concentration of ATP in the assay was 10 μM. After a 1 hour incubation 10 μL of ADP-Glo Reagent was added and after a further 45 minute incubation 20 μL of Kinase Detection Buffer was added and the mixture incubated for a further 30 minutes. The luminescent signal was measured on a luminometer. […] Compounds were tested in dose-response format and the inhibition of kinase activity was calculated at each concentration of compound. To determine the IC50 (concentration of compound required to inhibit 50% of the enzyme activity) data were fit to a plot of % inhibition vs Log10 compound concentration using a sigmoidal fit with a variable slope and fixing the maximum to 100% and the minimum to 0%. To determine the Ki values the Cheng-Prusoff equation was utilized (Ki=IC50/(1+[S]/Km).
# ROCK2 [2] = molecular target: T2, ROCK2 (Homo sapiens, UniProt O75116); assay: as above; details: read-out: Method A ROCK 2 (Ki)
# Description: as §1, §2
# ROCK1 [3] = molecular target: T1, ROCK1; assay: In vitro Rho kinase inhibitory activity assay, ADP-Glo, Method B (ATP 200 μM); details: read-out: Method B ROCK 1 (Ki)
# Description: (§3) In Vitro Inhibitory Activity Assay Description (Method B)
# as §2, with “(2 ul)” for “(2 μL)”, “was 200” for “was 10”, “20 ul” for “20 μL”, “vs Log 10” for “vs Log10”
# ROCK2 [4] = molecular target: T2, ROCK2; assay: as above; details: read-out: Method B ROCK 2 (Ki)
# Description: as §3
# as §2, with “(2 ul)” for “(2 μL)”, “was 200” for “was 10”, “20 ul” for “20 μL”, “vs Log 10” for “vs Log10”
# PKA = PKA (Homo sapiens, UniProt P17612); assay: In vitro inhibitory activity assay for PKA, ADP-Glo, reported as selectivity ratio vs ROCK2; details: Ki for PKA divided by Ki of ROCK2 (Method B)
# Description: In Vitro Inhibitory Activity Assay Description for PKA
# The effectiveness of compounds of the present invention to inhibit PKA activity can be determined in a 10 μL assay containing 40 mM Tris pH7.5, 20 mM MgCl2 0.1 mg/mL BSA, 50 μM DTT and 260 μM peptide substrate (kemptide) using an ADP-Glo kit (Promega). Compounds were dissolved in DMSO such that the final concentration of DMSO was 1% in the assay. All reactions/incubations are performed at 25° C. Compound and PKA enzyme (6 μL) were mixed and incubated for 30 min. Reactions were initiated by addition of ATP (4 μL) such that the final concentration of ATP in the assay was 10 μM. After a 30 minute incubation 10 μL of ADP-Glo Reagent was added and after a further 1 hour incubation 20 μL of Kinase Detection Buffer was added and the mixture incubated for a further 45 minutes. The luminescent signal was measured on a luminometer. […] Compounds were tested in dose-response format and the inhibition of kinase activity was calculated at each concentration of compound. To determine the IC50 (concentration of compound required to inhibit 50% of the enzyme activity) data were fit to a plot of % inhibition vs Log10 compound concentration using a sigmoidal fit with a variable slope and fixing the maximum to 100% and the minimum to 0%. To determine the Ki values the Cheng-Prusoff equation was utilized (Ki=IC50/(1+[S]/Km).
# In vitro inhibitory activities for PKA were reported as selectivity ratio vs. ROCK2. Selectivity ratio PKA/ROCK2 was calculated by dividing the Ki value for PKA by Ki value of ROCK2 (Method B) and reported into table 1.
# T2 sequence (O75116 whole entry): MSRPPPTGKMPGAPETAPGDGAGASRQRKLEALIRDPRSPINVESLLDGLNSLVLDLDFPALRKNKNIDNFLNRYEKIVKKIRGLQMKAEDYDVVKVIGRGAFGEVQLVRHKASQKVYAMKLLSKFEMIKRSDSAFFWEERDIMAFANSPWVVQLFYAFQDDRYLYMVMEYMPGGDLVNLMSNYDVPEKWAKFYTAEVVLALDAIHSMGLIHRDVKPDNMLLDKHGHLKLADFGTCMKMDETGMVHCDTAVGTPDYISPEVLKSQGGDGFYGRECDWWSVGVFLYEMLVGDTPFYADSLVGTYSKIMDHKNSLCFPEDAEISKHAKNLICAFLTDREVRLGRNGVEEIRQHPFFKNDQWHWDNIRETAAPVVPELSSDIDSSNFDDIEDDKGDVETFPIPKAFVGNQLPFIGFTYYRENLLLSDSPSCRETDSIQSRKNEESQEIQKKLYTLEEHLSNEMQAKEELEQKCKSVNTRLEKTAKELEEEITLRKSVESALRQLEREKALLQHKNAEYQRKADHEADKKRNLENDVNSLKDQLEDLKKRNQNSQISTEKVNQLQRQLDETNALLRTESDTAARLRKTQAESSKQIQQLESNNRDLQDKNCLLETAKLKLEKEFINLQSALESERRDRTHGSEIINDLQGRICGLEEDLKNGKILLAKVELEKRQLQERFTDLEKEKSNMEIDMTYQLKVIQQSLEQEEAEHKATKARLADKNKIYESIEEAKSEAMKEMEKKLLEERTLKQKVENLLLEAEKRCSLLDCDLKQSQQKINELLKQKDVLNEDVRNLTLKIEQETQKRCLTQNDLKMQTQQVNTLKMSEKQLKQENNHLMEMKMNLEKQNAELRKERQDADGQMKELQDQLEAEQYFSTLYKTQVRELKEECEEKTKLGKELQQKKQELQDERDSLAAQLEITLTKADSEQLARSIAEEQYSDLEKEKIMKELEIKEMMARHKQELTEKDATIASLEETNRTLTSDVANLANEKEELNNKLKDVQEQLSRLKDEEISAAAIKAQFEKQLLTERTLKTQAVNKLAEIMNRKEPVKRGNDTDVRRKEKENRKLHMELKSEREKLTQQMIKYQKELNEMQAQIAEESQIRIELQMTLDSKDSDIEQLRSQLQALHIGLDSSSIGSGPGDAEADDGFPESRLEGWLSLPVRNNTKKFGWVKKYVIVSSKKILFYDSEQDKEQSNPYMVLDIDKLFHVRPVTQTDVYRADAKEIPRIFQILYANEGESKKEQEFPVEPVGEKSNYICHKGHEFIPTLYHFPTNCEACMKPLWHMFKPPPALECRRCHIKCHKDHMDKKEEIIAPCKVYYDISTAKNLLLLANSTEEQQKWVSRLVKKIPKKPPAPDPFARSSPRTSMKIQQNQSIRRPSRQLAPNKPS
# T1 sequence (Q13464 whole entry): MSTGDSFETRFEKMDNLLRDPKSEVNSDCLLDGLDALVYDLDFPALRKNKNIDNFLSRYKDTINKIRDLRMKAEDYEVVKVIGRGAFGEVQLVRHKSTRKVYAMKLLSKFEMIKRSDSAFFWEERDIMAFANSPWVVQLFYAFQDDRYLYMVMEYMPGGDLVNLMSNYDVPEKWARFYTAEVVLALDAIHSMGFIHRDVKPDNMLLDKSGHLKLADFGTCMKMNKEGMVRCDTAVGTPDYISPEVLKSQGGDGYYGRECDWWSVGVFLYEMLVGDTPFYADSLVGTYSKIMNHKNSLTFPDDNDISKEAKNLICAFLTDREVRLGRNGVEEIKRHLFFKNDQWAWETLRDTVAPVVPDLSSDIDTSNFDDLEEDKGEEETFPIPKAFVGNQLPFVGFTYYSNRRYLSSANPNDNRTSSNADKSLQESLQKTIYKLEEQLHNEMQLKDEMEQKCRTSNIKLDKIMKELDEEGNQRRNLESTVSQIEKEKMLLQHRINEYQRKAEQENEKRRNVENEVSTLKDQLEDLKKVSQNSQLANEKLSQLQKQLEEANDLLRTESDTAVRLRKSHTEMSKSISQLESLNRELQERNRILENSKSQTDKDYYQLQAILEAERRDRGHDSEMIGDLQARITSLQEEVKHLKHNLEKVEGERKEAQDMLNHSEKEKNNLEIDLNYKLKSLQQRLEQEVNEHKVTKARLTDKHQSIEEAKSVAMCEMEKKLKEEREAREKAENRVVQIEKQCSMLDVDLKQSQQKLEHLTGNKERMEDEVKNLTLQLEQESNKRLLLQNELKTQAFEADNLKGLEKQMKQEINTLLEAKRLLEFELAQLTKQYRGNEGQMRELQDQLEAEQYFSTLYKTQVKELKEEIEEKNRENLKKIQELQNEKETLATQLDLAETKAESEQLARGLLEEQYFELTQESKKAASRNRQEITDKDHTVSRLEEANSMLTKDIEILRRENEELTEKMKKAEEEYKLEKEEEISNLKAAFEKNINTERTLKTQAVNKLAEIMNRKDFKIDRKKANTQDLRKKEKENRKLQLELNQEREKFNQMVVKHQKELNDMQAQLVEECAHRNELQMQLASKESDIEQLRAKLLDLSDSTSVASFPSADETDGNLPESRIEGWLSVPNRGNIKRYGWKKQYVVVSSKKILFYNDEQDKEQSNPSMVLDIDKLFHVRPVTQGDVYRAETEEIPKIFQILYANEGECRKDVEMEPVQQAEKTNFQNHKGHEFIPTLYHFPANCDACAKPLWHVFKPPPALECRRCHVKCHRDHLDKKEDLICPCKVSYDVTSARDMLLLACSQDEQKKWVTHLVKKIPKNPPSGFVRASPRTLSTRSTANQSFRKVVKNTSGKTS
Ki (ROCK1 [1]) [nM],Ki (ROCK2 [2]) [nM],Ki (ROCK1 [3]) [nM],Ki (ROCK2 [4]) [nM],Ratio (PKA/ROCK2) (PKA),Compound
≤ 3,≤ 3,,,,"CN1CCc2nc(NC(=O)c3cccc(CNc4ncc(-c5ccnc(F)c5)c5c4CCO5)c3)sc2C1 [Example 50, 3-(((7-(2-fluoropyridin-4-yl)-2,3-dihydrofuro[3,2-c]pyridin-4-yl)amino)methyl)-N-(5-methyl-4,5,6,7-tetrahydrothiazolo[5,4-c]pyridin-2-yl)benzamide]"
3 to 30,≤ 3,,,,"CN1CCc2nc(NC(=O)c3ccnc(CNc4ncc(-c5ccncc5)c5c4CCO5)c3)sc2C1 [Example 51, N-(5-methyl-4,5,6,7-tetrahydrothiazolo[5,4-c]pyridin-2-yl)-2-(((7-(pyridin-4-yl)-2,3-dihydrofuro[3,2-c]pyridin-4-yl)amino)methyl)isonicotinamide]"
3 to 30,≤ 3,,,,"CN1CCc2nc(NC(=O)c3cccc(CNc4ncc(-c5ccncc5)c5c4CCO5)n3)sc2C1 [Example 52, N-(5-methyl-4,5,6,7-tetrahydrothiazolo[5,4-c]pyridin-2-yl)-6-(((7-(pyridin-4-yl)-2,3-dihydrofuro[3,2-c]pyridin-4-yl)amino)methyl)picolinamide]"
3 to 30,3 to 30,,,,"CN(C)Cc1nc(C(=O)Nc2cccc(CNc3ncc(-c4ccncc4)c4c3CCO4)c2)cs1 [Example 53, 2-((dimethylamino)methyl)-N-(3-(((7-(pyridin-4-yl)-2,3-dihydrofuro[3,2-c]pyridin-4-yl)amino)methyl)phenyl)thiazole-4-carboxamide]"
≤ 3,≤ 3,≤ 3,≤ 3,*** (ratio≥10),"CN1CCc2sc(C(=O)Nc3cccc(CNc4ncc(-c5ccncc5)c5c4CCO5)c3)nc2C1 [Example 54, 5-methyl-N-(3-(((7-(pyridin-4-yl)-2,3-dihydrofuro[3,2-c]pyridin-4-yl)amino)methyl)phenyl)-4,5,6,7-tetrahydrothiazolo[4,5-c]pyridine-2-carboxamide]"
3 to 30,3 to 30,,,,"CC(=O)Nc1cccc(CNc2ncc(-c3ccncc3)c3c2CC(C)O3)c1 (stereo not shown) [Example 55, N-(3-(((2-methyl-7-(pyridin-4-yl)-2,3-dihydrofuro[3,2-c]pyridin-4-yl)amino)methyl)phenyl)acetamide]"

# The remaining lines, values behind:
Compound,Ki (ROCK1 [1]) [nM],Ki (ROCK2 [2]) [nM],Ki (ROCK1 [3]) [nM],Ki (ROCK2 [4]) [nM],Ratio (PKA/ROCK2) (PKA)
"O=C(Nc1ncc(CN2CCCC2)s1)c1cccc(CNc2ncc(-c3ccncc3)c3c2CCO3)c1 [Example 1, 3-(((7-(Pyridin-4-yl)-2,3-dihydrofuro[3,2-c]pyridin-4-yl)amino)methyl)-N-(5-(pyrrolidin-1-ylmethyl)thiazol-2-yl)benzamide]",≤ 3,≤ 3,≤ 3,≤ 3,
"CNC(=O)c1cccc(CNc2ncc(-c3ccncc3)c3c2CCO3)c1 [Example 20, N-methyl-3-(((7-(pyridin-4-yl)-2,3-dihydrofuro[3,2-c]pyridin-4-yl)amino)methyl)benzamide]",3 to 30,3 to 30,3 to 30,3 to 30,*** (ratio≥10)
CN1CCn2nc(NC(=O)c3cccc(CNc4ncc(-c5ccncc5)c5c4CCO5)c3)cc2C1 [Example 21],≤ 3,≤ 3,≤ 3,≤ 3,
"CN1CCC(CCNC(=O)c2cccc(CNc3ncc(-c4ccncc4)c4c3CCO4)c2)CC1 [Example 22, N-(2-(1-methylpiperidin-4-yl)ethyl)-3-(((7-(pyridin-4-yl)-2,3-dihydrofuro[3,2-c]pyridin-4-yl)amino)methyl)benzamide]",≤ 3,≤ 3,≤ 3,≤ 3,*** (ratio≥10)
"O=C(NCCN1CCOCC1)c1cccc(CNc2ncc(-c3ccncc3)c3c2CCO3)c1 [Example 28, N-(2-morpholinoethyl)-3-(((7-(pyridin-4-yl)-2,3-dihydrofuro[3,2-c]pyridin-4-yl)amino)methyl)benzamide]",≤ 3,≤ 3,3 to 30,3 to 30,*** (ratio≥10)
"O=C(NCCN1CCCCC1)c1cccc(CNc2ncc(-c3ccncc3)c3c2CCO3)c1 [Example 30, N-(2-(piperidin-1-yl)ethyl)-3-(((7-(pyridin-4-yl)-2,3-dihydrofuro[3,2-c]pyridin-4-yl)amino)methyl)benzamide]",≤ 3,≤ 3,3 to 30,3 to 30,*** (ratio≥10)
"CN1CCN(CCCC(=O)Nc2cccc(CNc3ncc(-c4ccncc4)c4c3CCO4)c2)CC1 [Example 35, 4-(4-methylpiperazin-1-yl)-N-(3-(((7-(pyridin-4-yl)-2,3-dihydrofuro[3,2-c]pyridin-4-yl)amino)methyl)phenyl)butanamide]",≤ 3,≤ 3,≤ 3,≤ 3,*** (ratio≥10)
"O=C(Nc1cccc(CNc2ncc(-c3ccncc3)c3c2CCO3)c1)c1ccc(CN2CCOCC2)cc1 [Example 36, 4-(morpholinomethyl)-N-(3-(((7-(pyridin-4-yl)-2,3-dihydrofuro[3,2-c]pyridin-4-yl)amino)methyl)phenyl)benzamide]",≤ 3,≤ 3,≤ 3,≤ 3,*** (ratio≥10)
"O=C(Nc1cccc(CNc2ncc(-c3ccncc3)c3c2CCO3)c1)c1ccc2c(c1)CCNC2 [Example 40, N-(3-(((7-(pyridin-4-yl)-2,3-dihydrofuro[3,2-c]pyridin-4-yl)amino)methyl)phenyl)-1,2,3,4-tetrahydroisoquinoline-6-carboxamide]",≤ 3,≤ 3,,,
"Cc1cc(-c2cnc(NCc3cccc(C(=O)Nc4nc5c(s4)CN(C)CC5)c3)c3c2OCC3)ccn1 [Example 47, N-(5-Methyl-4,5,6,7-tetrahydrothiazolo[5,4-c]pyridin-2-yl)-3-(((7-(2-methylpyridin-4-yl)-2,3-dihydrofuro[3,2-c]pyridin-4-yl)amino)methyl)benzamide]",3 to 30,3 to 30,,,
"Cc1cnccc1-c1cnc(NCc2cccc(C(=O)Nc3nc4c(s3)CN(C)CC4)c2)c2c1OCC2 [Example 48, N-(5-methyl-4,5,6,7-tetrahydrothiazolo[5,4-c]pyridin-2-yl)-3-(((7-(3-methylpyridin-4-yl)-2,3-dihydrofuro[3,2-c]pyridin-4-yl)amino)methyl)benzamide]",≤ 3,≤ 3,,,
"CN1CCc2nc(NC(=O)c3cccc(CNc4ncc(-c5ccnc(N)c5)c5c4CCO5)c3)sc2C1 [Example 49, 3-(((7-(2-aminopyridin-4-yl)-2,3-dihydrofuro[3,2-c]pyridin-4-yl)amino)methyl)-N-(5-methyl-4,5,6,7-tetrahydrothiazolo[5,4-c]pyridin-2-yl)benzamide]",≤ 3,≤ 3,,,

# Source: patent US12534474B2, “Dihydrofuropyridine derivatives as rho-kinase inhibitors” (CHIESI FARMACEUTICI S.P.A., priority 2020, dated 2026)
